In one assay the target is T1, TANK-2 enzyme (Homo sapiens, UniProt Q9H2K2).
T1 construct: made in house
T1 sequence (Q9H2K2 1-1166): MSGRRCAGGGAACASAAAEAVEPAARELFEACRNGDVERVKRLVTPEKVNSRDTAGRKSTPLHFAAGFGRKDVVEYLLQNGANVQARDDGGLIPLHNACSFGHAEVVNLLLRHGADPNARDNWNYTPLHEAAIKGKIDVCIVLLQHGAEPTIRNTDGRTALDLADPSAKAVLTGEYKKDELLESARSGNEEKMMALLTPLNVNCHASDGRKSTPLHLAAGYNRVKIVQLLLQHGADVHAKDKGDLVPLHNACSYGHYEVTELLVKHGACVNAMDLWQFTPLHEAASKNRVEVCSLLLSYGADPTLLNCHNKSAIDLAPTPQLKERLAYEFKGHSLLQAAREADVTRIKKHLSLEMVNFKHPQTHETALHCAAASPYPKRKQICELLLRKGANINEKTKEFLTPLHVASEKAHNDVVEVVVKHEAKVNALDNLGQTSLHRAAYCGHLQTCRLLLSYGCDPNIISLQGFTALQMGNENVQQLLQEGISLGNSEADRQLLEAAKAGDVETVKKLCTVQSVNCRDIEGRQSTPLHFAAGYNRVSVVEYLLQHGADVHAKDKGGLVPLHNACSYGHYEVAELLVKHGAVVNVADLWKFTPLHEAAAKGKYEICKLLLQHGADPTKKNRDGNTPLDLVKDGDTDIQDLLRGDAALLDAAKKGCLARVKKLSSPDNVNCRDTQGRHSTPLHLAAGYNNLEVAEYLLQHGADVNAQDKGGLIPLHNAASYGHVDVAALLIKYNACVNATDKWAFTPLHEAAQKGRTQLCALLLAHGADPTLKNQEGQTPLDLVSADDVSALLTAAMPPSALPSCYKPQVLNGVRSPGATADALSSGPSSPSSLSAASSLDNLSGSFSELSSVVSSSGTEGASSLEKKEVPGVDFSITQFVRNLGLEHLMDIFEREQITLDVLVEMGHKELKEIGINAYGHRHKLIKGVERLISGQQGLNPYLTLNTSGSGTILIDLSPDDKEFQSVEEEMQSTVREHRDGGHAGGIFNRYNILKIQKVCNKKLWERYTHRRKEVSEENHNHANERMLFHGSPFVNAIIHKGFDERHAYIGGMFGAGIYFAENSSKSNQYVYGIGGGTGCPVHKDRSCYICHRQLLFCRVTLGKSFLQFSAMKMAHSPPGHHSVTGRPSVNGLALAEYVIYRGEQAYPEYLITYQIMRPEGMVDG
Nature of the assay: In vitro Scintillation Proximity Assay (SPA) for TANK-2 inhibitory activity. The assay is classed as biochemical. Particulars: read-out: in vitro SPA assay TANK-2 pIC50 (converted). The protocol: Compounds of the present invention were tested in an in vitro assay based on SPA technology with Ni Flash plates (96 or 384 well). In principle, the assay relies upon SPA technology for the detection of auto-poly(ADP-ribosyl)ation of TANK-2 protein using [^3H]-nicotinamide adenine dinucleotide ([^3H]-NAD^+) as ADP-ribosyl donor.
A stock solution of 100 nM [3H]-NAD^+/NAD (0.1 mCi/ml, supplier: Perkin Elmer) and 0.25 μM NAD (Sigma) was made in assay buffer (60 mM Tris/HCl, pH 7.4; 0.9 mM DTT; 6 mM MgCl2). The TANK-2 enzyme was produced as described in EP1238063. 60 μl of assay buffer, together with 1 μl of compound in DMSO, 20 μl of [^3H]-NAD^+/NAD and 20 μl of TANK-2 enzyme (final concentration 8 μg/ml) was added per well into a 96-well Ni-coated flash plate (Perkin Elmer). After incubation of the mixture for 120 min. at room temperature, the reaction was terminated by adding 60 μl of stopsolution (42.6 mg NAD in 6 ml H2O). The plates were covered with a plate sealer and placed in a TopCountNXT™ (Packard) for scintillation counting. Values were expressed as counts per minute (cpm). For each experiment, controls (containing TANK-2 enzyme and DMSO without compound), a blank incubation (containing DMSO but no TANK-2 enzyme or compound) and samples (containing TANK-2 enzyme and compound dissolved in DMSO) were run in parallel. All compounds tested were dissolved and eventually further diluted in DMSO. In first instance, compounds were tested at a concentration of 10^−5M. […] In each test, the blank value was subtracted from both the control and the sample values. The control sample represented maximal TANK-2 enzyme activity. For each sample, the amount of cpm was expressed as a percentage of the mean cpm value of the controls. When appropriate, IC50-values (concentration of the drug, needed to reduce the TANK-2 enzyme activity to 50% of the control) were computed using linear interpolation between the experimental points just above and below the 50% level. Herein the effects of test compounds are expressed as pIC50 (the negative log value of the IC50-value). As reference compounds, 3-aminobenzamide and 4-amino-1,8-naphtalimide were included to validate the SPA assay. Herein the assay was described using 96-well plates. In the assay using 384-well plates the same final concentrations were used and volumes were adapted.

For the next assay, the system named is PC3 cells. Nature of the assay: EB1 Comet (microtubule disruption) assay. The assay is classed as cell-based, human. The conditions noted are these: Homo sapiens, PC-3, 1 h, 1 hour treatment, read-out: EB1 pLAC (converted). The protocol: The Eb1 Comet assay relies on the detection of the Eb1 protein at the plus end of polymerizing microtubules (Mimori-Kiyosue, 2000) using indirect immunofluorescence. Disruption of microtubule dynamics through de-polymerization or stabilization results in a de-localization of Eb1 from the growing microtubule ends and this is visualized by the disappearance of Eb1 containing cytoplasmic foci.
Briefly, human prostate cancer PC3 cells obtained from the American Type Culture Collection were grown in 96-well plates (Greiner, cat. no. 655090) in HAM's F12 medium as recommended by the provider (ATCC). The cells were treated for 1 hour at 37° C. with compounds dissolved in DMSO (0.6% final DMSO concentration). The culture medium was then removed by aspiration and the cells were fixed by adding cold methanol (−20 C). After a 15 min. incubation at −20 C, the cells were washed twice with DPBS (Gibco) containing 0.5% Triton X-100. Mouse Eb1 antibody (BD Transduction Laboratories, cat. no. 610534) was added to the cells (1/250 dilution in DPBS containing 1% BSA) and incubated overnight at room temperature. The antibody was subsequently removed and the cells washed twice with DPBS, 0.5% Triton X-100. Secondary goat anti-mouse antibody conjugated to Alexa 488 fluorescent dye (Molecular Probes) was added at a 1/500 dilution in DPBS, 1% BSA and incubated for 1 hour at 37 C. The cells were washed twice with DPBS, 0.5% Triton X-100 and then DPBS containing 0.5% Triton X-100 and 1/5000 Hoechst 33342 (Molecular Probes) was added. Microscopy based Eb1 foci visualization was carried out using an IN Cell Analyser 1000 (Amersham Biosciences) using a 20× objective. Compound dependent microtubule disruption was visually determined by the disappearance in Eb1 foci. The lowest active concentration (LAC) was determined as the concentration where Eb1 foci were absent in at least 50% of the treated cells.

For `CCc1cc2ccc(C(C)(C#N)Cc3cccc(-c4nc(C)no4)c3)cc2[nH]c1=O` (centres unmarked) [Compound 11], on TANK-2 enzyme, the IC50 was 79.4 nM. In addition, the minimal effective concentration with PC3 cells is 1 µM.

Regarding `CCc1cc2ccc([C@@](C)(C#N)CCOc3ccccc3)cc2[nH]c1=O` (single isomer, unassigned) [Compound 150], the IC50 on TANK-2 enzyme is 200 nM. In the case of `CCc1cc2ccc(C(C)(C#N)Cc3ccc(C(F)(F)F)cc3)cc2[nH]c1=O` (centres unmarked) [Compound 108], the IC50 at TANK-2 enzyme is 126 nM. `CCc1cc2ccc(C(C)(C#N)CCOc3cccc(C)c3)cc2[nH]c1=O` (centres unmarked) [Compound 143]: at TANK-2 enzyme, the IC50 is 158 nM. Besides, the minimal effective concentration with PC3 cells is 1 µM. Turning to `CCc1cc2ccc(C(C)(C#N)CCOc3ccc(Br)cc3)cc2[nH]c1=O` (centres unmarked) [Compound 160], the IC50 on TANK-2 enzyme was 316 nM. Besides, in the assay on PC3 cells, the minimal effective concentration was 0.316 µM.

For the molecule `CCc1cc2ccc(C(C)(C#N)CCOc3ccc4ccccc4c3)cc2[nH]c1=O` (centres unmarked) [Compound 157], at TANK-2 enzyme, the IC50 was 316 nM. The minimal effective concentration with PC3 cells was 0.1 µM. For the molecule `CCc1cc2ccc(C(C#N)(CCOc3ccccc3)C3CC3)cc2[nH]c1=O` (centres unmarked) [Compound 166], on TANK-2 enzyme, the IC50 is 126 nM.

As to `CCc1cc2ccc(C(C)(C#N)CCOc3cccc4ccccc34)cc2[nH]c1=O` (centres unmarked) [Compound 158], the IC50 on TANK-2 enzyme is 501 nM. In addition, the minimal effective concentration with PC3 cells is 0.316 µM. For `C#Cc1cccc(CC(C)(C#N)c2ccc3cc(CC)c(=O)[nH]c3c2)c1` (racemic) [Compound 168], the IC50 on TANK-2 enzyme was 79.4 nM. Besides, the minimal effective concentration in the assay on PC3 cells is 0.1 µM. For the molecule `CCc1cc2ccc(C(C)(C#N)Cc3ccc(C#N)cc3)cc2[nH]c1=O` (centres unmarked) [Compound 111], the IC50 at TANK-2 enzyme was 31.6 nM.

Consider `CCc1cc2ccc(C(C)(C#N)Cc3cc(F)cc(C(F)(F)F)c3)cc2[nH]c1=O` (centres unmarked) [Compound 127], for which, at TANK-2 enzyme, the IC50 was 398 nM. Also, the minimal effective concentration in the assay with PC3 cells is 1 µM. Consider `CCc1cc2ccc(C(C)(C#N)Cc3cccc(Cl)c3F)cc2[nH]c1=O` (centres unmarked) [Compound 130], for which the IC50 at TANK-2 enzyme was 79.4 nM. Further, the minimal effective concentration in the assay on PC3 cells was 0.1 µM. Regarding `CCc1cc2ccc(C(C)(C#N)Cc3cc(Br)cc(Br)c3)cc2[nH]c1=O` (centres unmarked) [Compound 133], the IC50 at TANK-2 enzyme was 200 nM.

For `CCc1cc2ccc(C(C)(C#N)Cc3cccc(NS(C)(=O)=O)c3)cc2[nH]c1=O` (centres unmarked) [Compound 14], the IC50 on TANK-2 enzyme was 79.4 nM. Regarding `CCc1cc2ccc(C(C#N)(CC)C3CCc4ccc(F)cc43)cc2[nH]c1=O` (centres unmarked) [Compound 391], the IC50 on TANK-2 enzyme was 631 nM. With `CCc1cc2ccc(C(C)(C#N)Cc3cccc(C(=O)O)c3)cc2[nH]c1=O` (centres unmarked) [Compound 10], the IC50 on TANK-2 enzyme was 50.1 nM. In the case of `CCc1cc2ccc(C(C)(C#N)Cc3cc(C(F)(F)F)cc(C(F)(F)F)c3)cc2[nH]c1=O` (centres unmarked) [Compound 131], the IC50 on TANK-2 enzyme was 1000 nM.

For the molecule `CCc1cc2ccc(C(C)(C#N)CCOc3ccc4oc(C)c(C)c4c3)cc2[nH]c1=O` (centres unmarked) [Compound 162], on TANK-2 enzyme, the IC50 was 158 nM. With `Cc1cc2ccc([C@@](C)(C#N)[C@H]3CCc4cc(C#N)ccc43)cc2[nH]c1=O` [Compound 389], the IC50 at TANK-2 enzyme was 3160 nM.

Consider `CCc1cc2ccc(C(C)(C#N)CCOc3ccc(C)cc3)cc2[nH]c1=O` (centres unmarked) [Compound 149], for which the IC50 at TANK-2 enzyme was 200 nM. For `CCc1cc2ccc(C(C)(C#N)Cc3ccc(F)cc3)cc2[nH]c1=O` (centres unmarked) [Compound 115], the IC50 at TANK-2 enzyme was 31.6 nM.

In the case of `CCc1cc2ccc(C(C)(C#N)CC#Cc3cccc(F)c3)cc2[nH]c1=O` (centres unmarked) [Compound 184], the IC50 at TANK-2 enzyme was 2510 nM. Take `CCc1cc2ccc(C(C)(C#N)CCOc3ccccc3Br)cc2[nH]c1=O` (centres unmarked) [Compound 153]: the IC50 at TANK-2 enzyme is 79.4 nM. `Cc1cc2ccc([C@@](C)(C#N)[C@@H]3CCc4cc(C#N)ccc43)cc2[nH]c1=O` [Compound 245]: the IC50 on TANK-2 enzyme was 1000 nM. Consider `CCc1cc2ccc(C(C)(C#N)CCOc3cccc4c3OCCO4)cc2[nH]c1=O` (centres unmarked) [Compound 163], for which the IC50 at TANK-2 enzyme was 200 nM.

As for `CCc1cc2ccc(C(C)(C#N)CCOc3ccccc3C(C)=O)cc2[nH]c1=O` (centres unmarked) [Compound 159], the IC50 on TANK-2 enzyme is 251 nM. As to `CCc1cc2ccc([C@](C)(C#N)C[C@@H]3CCc4cc(C)ccc4O3)cc2[nH]c1=O` [Compound 251], at TANK-2 enzyme, the IC50 was 316 nM. In the case of `CCc1cc2ccc(C(C)(C#N)Cc3cccc(NC(=O)N4CCOCC4)c3)cc2[nH]c1=O` (centres unmarked) [Compound 16], the IC50 at TANK-2 enzyme was 79.4 nM. Consider `CCc1cc2ccc([C@@](C)(C#N)C[C@@H]3CCc4cc(C)ccc4O3)cc2[nH]c1=O` [Compound 252], for which the IC50 at TANK-2 enzyme was 794 nM. Same read-out and setting: to `CCc1cc2ccc(C(C)(C#N)CCOc3ccc(C(C)(C)C)cc3)cc2[nH]c1=O` (centres unmarked) [Compound 167] belongs 794 nM.

Take `CCc1cc2ccc(C(C)(C#N)CCOc3ccc(SC)cc3)cc2[nH]c1=O` (centres unmarked) [Compound 155]: at TANK-2 enzyme, the IC50 was 126 nM. Turning to `CCc1cc2ccc(C(C)(C#N)CCOc3ccc(Cl)cc3)cc2[nH]c1=O` (centres unmarked) [Compound 146], the IC50 on TANK-2 enzyme is 158 nM.

`CCc1cc2ccc(C(C)(C#N)CCOc3ccccc3Cl)cc2[nH]c1=O` (centres unmarked) [Compound 152]: the IC50 at TANK-2 enzyme is 126 nM. With `CCc1cc2ccc(C(C)(C#N)Cc3ccc(C)cc3)cc2[nH]c1=O` (centres unmarked) [Compound 117], the IC50 on TANK-2 enzyme was 25.1 nM.

As to `CCc1cc2ccc(C(C)(C#N)Cc3cccc(C(=O)NC)c3)cc2[nH]c1=O` (centres unmarked) [Compound 13], the IC50 on TANK-2 enzyme was 63.1 nM. On the same count and under the same terms, with `CCc1cc2ccc(C(C#N)(CC)CCOc3ccc(C#N)cc3)cc2[nH]c1=O` (centres unmarked) [Compound 271] the figure was 501 nM.
